In US6608027B1, “Macrocyclic peptides active against the hepatitis C virus” (Boehringer Ingelheim (Canada) Ltd, priority 1999, dated 2003):

Biological target: T1, NS3 protease (Hepatitis C virus genotype 1b, UniProt P26663)
T1 construct: expressed in transfected cells; host or cells: Huh-7 human hepatoma cells, transient co-transfection (CMV promoter)
Assay: NS3 protease cell-based assay (SEAP reporter, Huh-7 cells)
Parameters: species or system HCV
Conditions: SEAP activity, 24-hour incubation, read-out: cell. act. (EC50 code)
Description: This assay is done with Huh-7 cells, a human cell line derived from a hepatoma, co-transfected with 2 DNA constructs: one (called NS3) expressing part of the HCV non-structural polyprotein fused to the tTA protein through an NS5A-NS5B cleavage site in the following order: NS3-NS4A-NS4B-NS5A-(NS5B)tTA where (NS5B) represents the 6 first amino acids of NS5
B. This polyprotein is expressed under the control of the CMV promoter, the other (called SEAP) expressing the reporter protein, secreted alkaline phosphatase (SEAP), under the regulation of a tTA-responsive promoter. The first construct leads to the expression of a polyprotein from which the different mature proteins are released through cleavage by the NS3 protease. It is believed that the mature viral proteins forms a complex at the membrane of the endoplasmic reticulum. tTA is a fusion protein, described by Gossen and Bujard (Proc. Natl. Acad. Sci. USA 89 (1992): 5547-5551), which contains a DNA-binding domain and a transcriptional activator. Release of the tTA protein requires an NS3-dependent cleavage at the NS5A-NS5B cleavage site between NS5A and itself. This last cleavage allows tTA to migrate to the nucleus and transactivate the SEAP gene. Therefore, reduction of NS3 proteolytic activity leads to confinement of tTA to the cytoplasm and concomitant decrease in SEAP activity.
To control for cellular activities other than inhibition of NS3 protease which are due to the compound, a parallel co-transfection is done with a construct expressing tTA alone and the same reporter construct such that SEAP activity is independent of the NS3 protease.
Protocol of the assay: Huh-7 cells, grown in CHO-SFMII (Life Technologies)+10% FCS (fetal calf serum) were co-transfected with the two DNA constructs in the following proportions: 7 μg NS3+500 ng SEAP+[…] FuGENE (Boehringer Mannheim) per 4×10^6 Huh-7 cells. After 5 hours at 37° C., the cells were washed, trypsinized and plated (at 80 000 cells/well) in 96-well plates containing a range of concentrations of the compounds to be tested. After a 24-hour incubation period, the SEAP activity in the medium was measured with the Phospha-Light kit (Tropix).
Analysis of the percent inhibition of SEAP activity with respect to compound concentration was performed with the SAS software to obtain the EC50.

T1 sequence (P26663 1658-1711): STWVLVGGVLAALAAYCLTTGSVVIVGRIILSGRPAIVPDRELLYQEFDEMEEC
T1 sequence (P26663 1027-1657): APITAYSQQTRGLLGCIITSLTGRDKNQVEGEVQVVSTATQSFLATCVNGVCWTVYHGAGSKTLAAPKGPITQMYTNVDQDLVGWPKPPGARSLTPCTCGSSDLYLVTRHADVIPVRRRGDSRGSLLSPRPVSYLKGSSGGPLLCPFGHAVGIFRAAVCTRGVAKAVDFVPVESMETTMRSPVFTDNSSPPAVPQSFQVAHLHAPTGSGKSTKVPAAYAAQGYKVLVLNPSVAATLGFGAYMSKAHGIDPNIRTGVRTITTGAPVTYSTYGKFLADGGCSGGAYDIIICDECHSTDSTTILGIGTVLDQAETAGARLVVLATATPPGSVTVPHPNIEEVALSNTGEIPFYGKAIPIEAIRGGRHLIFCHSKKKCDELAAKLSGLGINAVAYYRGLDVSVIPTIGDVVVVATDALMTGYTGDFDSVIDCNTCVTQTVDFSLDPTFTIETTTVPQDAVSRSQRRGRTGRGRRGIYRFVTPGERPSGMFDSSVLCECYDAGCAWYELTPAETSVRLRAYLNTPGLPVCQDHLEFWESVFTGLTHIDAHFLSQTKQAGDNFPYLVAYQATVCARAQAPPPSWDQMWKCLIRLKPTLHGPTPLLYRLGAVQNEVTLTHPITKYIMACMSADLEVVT

| Compound | EC50 |
| --- | --- |
| COc1ccc2c(O[C@@H]3C[C@H]4C(=O)N[C@]5(C(=O)O)C[C@H]5/C=C\CCCCC[C@H](NC(=O)OC(C)(C)C)C(=O)N4C3)cc(-c3csc(NC=O)n3)nc2c1 [Compound 735] | ≤ 1000 nM |
| COc1ccc2c(O[C@@H]3C[C@H]4C(=O)N[C@]5(C(=O)O)CC5/C=C\CCCCC[C@H](NC(=O)OC(C)(C)C)C(=O)N4C3)cc(-n3ccnc3)nc2c1 (stereo partly drawn) [Compound 718] | ≤ 1000 nM |
| COc1ccc2c(O[C@@H]3C[C@H]4C(=O)N[C@]5(C(=O)O)CC5CCCCCCC[C@H](NC(=O)OC5CCCC5)C(=O)N4C3)cc(-c3csc(NC(C)C)n3)nc2c1 (stereo partly drawn) [Compound 911] | ≤ 1000 nM |
| COc1ccc2c(O[C@@H]3C[C@H]4C(=O)N[C@]5(C(=O)O)CC5/C=C\CCCCC[C@H](NC(=O)OC5CCCC5)C(=O)N4C3)cc(-c3csc(NC4CCCCC4)n3)nc2c1 (stereo partly drawn) [Compound 828] | ≤ 1000 nM |
| COc1ccc2c(O[C@@H]3C[C@H]4C(=O)N[C@]5(C(=O)O)CC5CCCCCCC[C@H](NC(=O)OC5CCCC5)C(=O)N4C3)cc(-c3csc(NC(C)=O)n3)nc2c1 (stereo partly drawn) [Compound 909] | ≤ 1000 nM |
| CNc1nc(-c2cc(O[C@@H]3C[C@H]4C(=O)N[C@]5(C(=O)O)CC5/C=C\CCCCC[C@H](NC(=O)OC5CCCC5)C(=O)N4C3)c3ccc(OC)cc3n2)cs1 (stereo partly drawn) [Compound 811] | ≤ 1000 nM |
| COc1ccc2c(O[C@@H]3C[C@H]4C(=O)N[C@]5(C(=O)O)CC5/C=C\CCCCC[C@H](NC(=O)OC(C)(C)C)C(=O)N4C3)cc(-n3cnc(C)c3)nc2c1 (stereo partly drawn) [Compound 722] | ≤ 1000 nM |
| COC(=O)Nc1nc(-c2cc(O[C@@H]3C[C@H]4C(=O)N[C@]5(C(=O)O)CC5/C=C\CCCCC[C@H](NC(=O)OC5CCCC5)C(=O)N4C3)c3ccc(OC)cc3n2)cs1 (stereo partly drawn) [Compound 818] | ≤ 1000 nM |
| COC(=O)Nc1nc(-c2cc(O[C@@H]3C[C@H]4C(=O)N[C@]5(C(=O)O)C[C@H]5/C=C\CCCCC[C@H](NC(=O)OC(C)(C)C)C(=O)N4C3)c3ccc(OC)cc3n2)cs1 [Compound 736] | ≤ 1000 nM |
